Results as given in patent publication US5661160A, “Substituted pyrrolidin-3-yl-alkyl-piperidines” (Merrell Pharmaceuticals Inc., priority 1995, dated 1997).
Where a name gives a salt, the structure may show the parent alone.

How the values were obtained:
[1] = target: T1, NK1 receptor (UC11 cells) (Homo sapiens, UniProt P25103); test: Antagonism of NK1 receptor mediated (SP-induced) phosphatidylinositol turnover in UC11 cells; type: cell-based
T1 construct: endogenous in cells; host or cells: UC11 cells
Method: Tachykinin-mediated inositol phosphate accumulation was measured in UC11 or SKLKB82#3 cells in the presence and absence of NK1 or NK2 receptor antagonists, respectively. Tissues were incubated in Krebs-Henseleit buffer at 37° C. with 95% O2 -5% CO2 gassing. Tissues were then incubated with fresh buffer containing 100 μCi of myo-[2-^3 H(N)] inositol at 37° C. for 60 min with gentle gassing. After washing twice in 5 ml room temperature buffer containing 10 mM LiCl, tissues were incubated for 30 min at room temperature with a buffer change at 15 min. Buffer was removed and Krebs-Henseleit buffer (containing 40 μg/ml bacitracin, 4 μg/ml each of leupeptin and chymostatin, 0.1% bovine serum albumin and 10 mM each of thiorphan and LiCl) added. After 15 min, SP was added to UC11 cells or NKA to SKLKB82#3 cells at various concentrations to start the reaction. […] The third elution was collected and 1 ml counted in 7 ml scintillation fluid. A 50 μl aliquot of the organic (bottom) phase was removed, dried in a scintillation vial and counted in 7 ml scintillation fluid.
(§1) The ratio of DPM in the aqueous phase aliquot (total inositol phosphates) to the DPM in the 50 μl organic phase aliquot (total [^3 H]-inositol incorporated) was calculated for each sample. Data are expressed as a percent of agonist-induced accumulation of [^3 H]-inositol phosphates over basal levels. […] Dose-response graphs were constructed and the abilities of the test compounds to inhibit tachykinin-induced phosphatidyinositol turnover determined with the aid of a computer program. […] Data is expressed as percent stimulation of total inositol phosphate accumulation over basal levels and normalized to the maximum response produced by SP. […] Schild analysis is performed using dose response curves (such as those presented in FIGS. 1a and 1b) to obtain a value indicative of the Strength of a competitive antagonist and is expressed as the pA2, which is the negative logarithm of the molar concentration of antagonist which reduces the effect of a dose of agonist to one-half of that expected at the dose of agonist.

[2] = target: T2, NK2 receptor (SKLKB82#3 cells) (Bos taurus, UniProt P05363); test: Antagonism of NK2 receptor mediated (NKA-induced) phosphatidylinositol turnover in SKLKB82#3 cells; type: cell-based; details: for NK-2 RECEPTOR -SLOPE: Schild analysis, NKA, mean (95% confidence limits)
T2 construct: expressed in transfected cells; host or cells: SKLKB82#3 cells (mouse B82 fibroblasts, own knowledge)
T2 sequence (P05363 1-384): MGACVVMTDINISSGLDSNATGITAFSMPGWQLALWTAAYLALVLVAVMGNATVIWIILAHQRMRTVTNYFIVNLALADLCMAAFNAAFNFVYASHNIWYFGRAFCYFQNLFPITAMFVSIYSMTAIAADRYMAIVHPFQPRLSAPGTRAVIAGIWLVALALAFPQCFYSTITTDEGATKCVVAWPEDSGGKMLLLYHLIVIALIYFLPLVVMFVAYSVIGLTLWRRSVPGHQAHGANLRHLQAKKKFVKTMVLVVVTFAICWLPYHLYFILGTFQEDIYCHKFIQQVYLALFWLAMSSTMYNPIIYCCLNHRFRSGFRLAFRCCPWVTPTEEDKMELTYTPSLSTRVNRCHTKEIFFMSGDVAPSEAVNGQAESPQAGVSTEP
Method: Tachykinin-mediated inositol phosphate accumulation was measured in UC11 or SKLKB82#3 cells in the presence and absence of NK1 or NK2 receptor antagonists, respectively. Tissues were incubated in Krebs-Henseleit buffer at 37° C. with 95% O2 -5% CO2 gassing. Tissues were then incubated with fresh buffer containing 100 μCi of myo-[2-^3 H(N)] inositol at 37° C. for 60 min with gentle gassing. After washing twice in 5 ml room temperature buffer containing 10 mM LiCl, tissues were incubated for 30 min at room temperature with a buffer change at 15 min. Buffer was removed and Krebs-Henseleit buffer (containing 40 μg/ml bacitracin, 4 μg/ml each of leupeptin and chymostatin, 0.1% bovine serum albumin and 10 mM each of thiorphan and LiCl) added. After 15 min, SP was added to UC11 cells or NKA to SKLKB82#3 cells at various concentrations to start the reaction. After incubation for 60 min at room temperature the reaction was terminated by addition of 930 μl chloroform:methanol (1:2 by volume) to each tube, followed by 310 μl chloroform and 310 μl doubly distilled water. Samples were vortexed, centrifuged, and 0.9 ml of the aqueous (top) phase removed and added to 2 ml ddH2 O. The mixture was vortexed and loaded onto a 50% Bio-Rad AG 1-X8 (formate form, 100-200 mesh) exchange column (Bio-Rad Laboratories, Hercules, Calif.). The columns were washed, in order, with: 1) 10 ml doubly distilled water, 2) 5 ml of 5 mM disodium tetraborate/60 mM sodium formate, and 3) 5 ml of 1M ammonium formate/0.1M formic acid. The third elution was collected and 1 ml counted in 7 ml scintillation fluid. A 50 μl aliquot of the organic (bottom) phase was removed, dried in a scintillation vial and counted in 7 ml scintillation fluid.
as §1

NK1 and NK2 receptors [3] = test: Antagonism of capsaicin aerosol-induced respiratory effects in conscious guinea pigs, intravenous; type: in vivo, guinea pig; details: for SRE NUMBER: coughs/gasps during 19 min capsaicin exposure, mean and SEM; for effect on capsaicin-induced respiratory effects (in words): i.v.
Method: (§2) In vivo experiments were performed using male Duncan Hartley guinea pigs (250-350 g). Changes in conscious breathing patterns were monitored in four animals simultaneously using modified whole body plethysmography consisting of four small plexiglass boxes each connected to a reference box via Validyne DP 45-16 differential pressure transducers. The 4 boxes were equipped with an air supply line (also used for aerosol delivery) and an exhaust air line. Supply and exhaust lines were of the same length and narrow bore and arose from a common supply chamber and vented to a common exhaust chamber. This system was used to ensure that fluctuations in supply air and atmospheric pressure would remain in phase and be eliminated from the net signal by the differential pressure transducers. The analog pressure signals were digitalized via a Data Translation DT2821 A to D board. Data were collected at a rate of 100 samples/second/animal. Each cycle of pressure change was analyzed using the following parameters: rising and falling slope determined between minimum and maximum pressures, the ratio of rising over falling slope, and the magnitude of the change between initial trough pressure and peak cycle pressure. Using these values (and observing the animals) the pressure cycles were characterized into normal breaths, forced exhalations (apparent by abdominal heaving), significant respiratory events (SREs; usually coughs, less often sneezes or gasps which were characterized by transient, extremely large pressure increases which were distinguishable from noise) and movement/noise with a PCAT 286 running a System V UNIX operating system. Dyspnea was defined as a significant, sustained increase in plethysmograph pressure which was associated with an observable shift to labored breathing in the animal.
(§3) During the course of a typical experiment in which airway responsiveness to various bronchoconstricting agents was examined, aerosols were delivered for 19 min (0.33 ml/min) using a DeVilbiss Ultraneb 99 ultrasonic nebulizer and animals monitored during this time. Prior to nebulization, 1 min of resting breathing was collected to establish a baseline pressure. […] The vehicle for nebulization of all bronchoconstrictive agents was phosphate buffered saline (pH 7.4) which elicited no respiratory effects itself. Putative tachykinin antagonists were administered either (i.v.) 20 min prior to onset of aerosol exposure or orally 1 hour prior to onset (to guinea pigs after an overnight fast).
(§4) Capsaicin aerosol is known to promote release of the tachykinins SP and NKA from sensory nerves in the airways of guinea pigs which may then act upon NK1 and NK2 receptors, respectively to elicit respiratory effects.

NK1 and NK2 receptors [4] = test: Antagonism of capsaicin aerosol-induced respiratory effects in conscious guinea pigs, oral; type: in vivo, guinea pig; details: for SRE NUMBER: coughs/gasps during 19 min capsaicin exposure, mean and SEM; for effect on capsaicin aerosol effects (in words): oral
Method: as §2, §3, §4

NK1 receptors = target: T3, NK1 receptors (Cavia porcellus, UniProt P30547); test: Antagonism of SP-induced plasma protein extravasation in guinea pig trachea; type: in vivo; details: for relative potency as NK-1 receptor antagonists (in words): Example 3 versus its (+)-enantiomer Example 20A
T3 construct: measuring Evans Blue dye accumulation in guinea pig trachea; from tissue; host or cells: guinea pig trachea and primary bronchi, whole animal in vivo
Method: SP-induced protein leakage through postcapillary venules was assessed by measuring Evans Blue dye accumulation in guinea pig trachea. Animals were anesthetized with pentobarbital then injected with Evans Blue dye (20 mg/kg, i.v., prepared in 0.9% NaCl solution). One minute after dye administration, the antagonist was administered (i.v.) followed by SP (0.3 nmole/kg, i.v.) and, after 5 min, excess dye removed from the circulation by transcardiac perfusion with 50 ml 0.9% NaCl solution. The trachea and primary bronchi were removed, blotted dry and weighed. Dye quantitation was performed spectrophotometrically ([…]) after extracting tissues in formamide for 24 hr at 50° C. Values were subtracted from background (dye only, no agonist). ED50 (dose of compound which inhibits SP-induced plasma protein extravasation by 50%) was calculated from linear regression analysis.

NK2 receptor = test: Antagonism of NKA aerosol-induced respiratory effects in conscious guinea pigs; type: in vivo, guinea pig; details: dose dependent
Method: as §2
During the course of a typical experiment in which airway responsiveness to various bronchoconstricting agents was examined, aerosols were delivered for 19 min (0.33 ml/min) using a DeVilbiss Ultraneb 99 ultrasonic nebulizer and animals monitored during this time. […]

T1 sequence (P25103 whole entry): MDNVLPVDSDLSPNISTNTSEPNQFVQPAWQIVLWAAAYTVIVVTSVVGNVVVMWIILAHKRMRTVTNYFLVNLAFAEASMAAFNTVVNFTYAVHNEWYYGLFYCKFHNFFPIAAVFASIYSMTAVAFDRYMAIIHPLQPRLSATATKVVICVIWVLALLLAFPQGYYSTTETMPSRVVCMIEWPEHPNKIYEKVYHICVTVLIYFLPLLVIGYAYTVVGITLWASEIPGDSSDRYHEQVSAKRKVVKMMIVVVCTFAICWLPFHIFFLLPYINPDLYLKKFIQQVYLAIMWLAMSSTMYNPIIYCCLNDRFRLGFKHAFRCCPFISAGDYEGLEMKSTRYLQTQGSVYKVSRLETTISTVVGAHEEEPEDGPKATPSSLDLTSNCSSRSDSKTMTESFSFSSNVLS
T3 sequence (P30547 whole entry): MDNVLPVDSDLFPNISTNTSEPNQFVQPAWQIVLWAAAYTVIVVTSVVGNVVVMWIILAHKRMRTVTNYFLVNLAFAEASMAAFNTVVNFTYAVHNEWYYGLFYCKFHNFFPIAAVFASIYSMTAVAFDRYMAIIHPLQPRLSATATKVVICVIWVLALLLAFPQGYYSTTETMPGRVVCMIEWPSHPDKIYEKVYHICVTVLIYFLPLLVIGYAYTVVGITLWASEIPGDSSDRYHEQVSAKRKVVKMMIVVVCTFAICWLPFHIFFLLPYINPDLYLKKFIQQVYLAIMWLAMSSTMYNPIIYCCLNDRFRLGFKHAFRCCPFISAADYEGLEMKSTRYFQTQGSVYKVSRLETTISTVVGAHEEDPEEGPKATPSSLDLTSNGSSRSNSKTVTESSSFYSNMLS

Structure (SMILES)	NK-2 RECEPTOR -SLOPE [2]	SRE NUMBER (NK1 and NK2 receptors [3]; 10 mg/kg i.v.)	effect on capsaicin-induced respiratory effects (in words) (NK1 and NK2 receptors [3])	effect on capsaicin aerosol effects (in words) (NK1 and NK2 receptors [4])	relative potency as NK-1 receptor antagonists (in words) (NK1 receptors)	effect on NKA aerosol respiratory effects (in words) (NK2 receptor)	further results
COc1cc(C(=O)N2CCC(CCN3CCC(C(N)=O)(c4ccccc4)CC3)(c3ccc(Cl)c(Cl)c3)C2)cc(OC)c1OC (racemic) [Example 3A, 1-[2-[3-(3,4-dichloro-phenyl)-1-(3,4,5-trimethoxy-benzoyl)-pyrrolidin-3-yl]-ethyl]-4-phenyl-piperidine-4-carboxylic acid amide hydrochloride]	0.73	8.50 ± 1.9	attenuate capsaicin-induced respiratory effects	antagonize the effects of capsaicin aerosol			NK-1 RECEPTOR -SLOPE ([1]; Schild analysis, SP, mean (95% confidence limits)): 0.90; SRE NUMBER (NK1 and NK2 receptors [4]; 25 mg/kg oral): 4.6 ± 1.0; SRE NUMBER (NK1 and NK2 receptors [4]; 50 mg/kg oral): 2.8 ± 0.8; SRE NUMBER (NK1 and NK2 receptors [4]; 100 mg/kg oral): 2.1 ± 0.5
COc1cc(C(=O)N2CCC(CCN3CCC(C(N)=O)(c4ccccc4)CC3)(c3ccc(Cl)c(Cl)c3)C2)cc(OC)c1OC.Cl (single isomer, unassigned; (+)) [Example 20A, (+)-1-[2-[3-(3,4-dichloro-phenyl)-1-(3,4,5-trimethoxy-benzoyl)-pyrrolidin-3-yl]-ethyl]-4-phenyl-piperidine-4-carboxylic acid amide hydrochloride]		3.3 ± 1.1	attenuate capsaicin-induced respiratory effects		equipotent	reduced the effects of NKA aerosol	SRE NUMBER (NK1 and NK2 receptors [3]; 1 mg/kg i.v.): 9.9 ± 2.7; SRE NUMBER (NK1 and NK2 receptors [3]; 2.5 mg/kg i.v.): 8.3 ± 1.6; SRE NUMBER (NK1 and NK2 receptors [3]; 5 mg/kg i.v.): 4.4 ± 1.9
COc1cc(C(=O)N2CCC(CCN3CCC(C(N)=O)(c4ccccc4)CC3)(c3ccc(Cl)c(Cl)c3)C2)cc(OC)c1OC (single isomer, unassigned; (+)) [Example 20]	1.00						
COc1cc(C(=O)N2CCC(CCN3CCC(C(N)=O)(c4ccccc4)CC3)(c3ccc(Cl)c(Cl)c3)C2)cc(OC)c1OC (stereo not shown) [Example 3, 1-[2-[3-(3,4-dichloro-phenyl)-1-(3,4,5-trimethoxy-benzoyl)-pyrrolidin-3-yl]-ethyl]-4-phenyl-piperidine-4-carboxylic acid amide]					equipotent	reduced the effects of NKA aerosol	antagonism of SP induced PI turnover (in words) ([1]; FIG. 1a): dose related antagonism; agonist activity, PI turnover (in words) ([1]; compound alone): no agonist activity; antagonism of NKA induced PI turnover (in words) ([2]; FIG. 1b): dose related antagonism; agonist activity, PI turnover (in words) ([2]; compound alone): no agonist activity; antagonism of SP-induced plasma protein extravasation (in words) (NK1 receptors; FIG. 2): dose related antagonism
COc1cccc(OC)c1C(=O)N1CCC(CCN2CCC(C(N)=O)(c3ccccc3)CC2)(c2ccc(Cl)c(Cl)c2)C1 (stereo not shown) [Example 5A, 1-[2-[3-(3,4-dichloro-phenyl)-1-(2,6-dimethoxy-benzoyl)-pyrrolidin-3-yl]-ethyl]-4-phenyl-piperidine-4-carboxylic acid amide hydrochloride]						reduced the effects of NKA aerosol	
COc1cccc(OC)c1C(=O)N1CCC(CCN2CCC(C(N)=O)(c3ccccc3)CC2)(c2ccc(Cl)c(Cl)c2)C1 (stereo not shown) [Example 5]				antagonize the effects of capsaicin aerosol			
